Columns and labels:
Experiment in all cases: relative viability (nuclei count vs DMSO), 5 days (fraction); higher = more cells survive
[1] = compound: C1CSC2=C(C(=O)N1)SC3=C2C=C(C=C3)O [kb NB 142-70] + CC(=O)c1c(C)c2cnc(Nc3ccc(N4CCNCC4)cn3)nc2n(C2CCCC2)c1=O [Palbociclib] (partner 0.5 µM)
Procedure, shortened: (§1)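 After 5 days of treatment, lung cancer cells in 1536-well plates were fixed and stained in a single step (final 0.05% Triton X-100, 1% formaldehyde, 1 ug/ml Hoechst) and their nuclei counted on 4× images. Treatment had been applied by pin tool the day after seeding as one drug alone or as a fixed anchor-drug dose with five library-drug doses (not always all listed) in √10 steps. Relative viability is the nuclei count of treated wells divided by that of vehicle wells, and values are medians of duplicate plates.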

[2] = compound: NCC(=O)Nc1ccc(-n2nc(C(F)(F)F)cc2-c2ccc3c(ccc4ccccc43)c2)cc1 + CS(=O)(=O)N1CCN(Cc2cc3nc(-c4cccc5[nH]ncc45)nc(N4CCOCC4)c3s2)CC1 [Pictilisib] (partner 1 µM)
Procedure, shortened: as §1

kb NB 142-70 + Dasatinib = compound: C1CSC2=C(C(=O)N1)SC3=C2C=C(C=C3)O [kb NB 142-70] + Cc1nc(Nc2ncc(C(=O)Nc3c(C)cccc3Cl)s2)cc(N2CCN(CCO)CC2)n1 [Dasatinib] (partner 0.075 µM)
Procedure, shortened: as §1

[3] = compound: NCC(=O)Nc1ccc(-n2nc(C(F)(F)F)cc2-c2ccc3c(ccc4ccccc43)c2)cc1 + COc1cc2c(Oc3ccc(NC(=O)C4(C(=O)Nc5ccc(F)cc5)CC4)cc3F)ccnc2cc1OCCCN1CCOCC1 [Foretinib] (partner 0.25 µM)
Procedure, shortened: as §1

Cell Line | relative viability ([1]; first compound 0.1 µM) | relative viability ([1]; first compound 1 µM) | relative viability ([1]; first compound 3.162 µM) | relative viability ([2]; first compound 0.02 µM) | relative viability ([2]; first compound 0.06325 µM) | relative viability ([2]; first compound 0.2 µM) | relative viability ([2]; first compound 0.6325 µM) | relative viability ([2]; first compound 2 µM) | relative viability (kb NB 142-70 + Dasatinib; first compound 0.1 µM) | relative viability (kb NB 142-70 + Dasatinib; first compound 1 µM) | relative viability (kb NB 142-70 + Dasatinib; first compound 3.162 µM) | relative viability ([3]; first compound 0.02 µM) | relative viability ([3]; first compound 0.06325 µM) | relative viability ([3]; first compound 0.2 µM) | relative viability ([3]; first compound 0.6325 µM) | relative viability ([3]; first compound 2 µM)
HCC-44 | 0.96 | 1 | 1.03 | 0.5 | 0.638 | 0.633 | 0.684 | 0.659 | – | – | – | – | – | – | – | –
HCC-827 | 0.525 | 0.459 | 0.396 | 1.01 | 1.15 | 1.05 | 0.79 | 0.896 | 0.265 | 0.295 | 0.445 | 1.1 | 1.09 | 0.98 | 0.991 | 1.08
NCI-H1623 | – | – | – | – | – | – | – | – | 0.552 | 0.558 | 0.428 | 1.02 | 0.935 | 0.77 | 0.84 | 0.923
NCI-H2347 | 0.438 | 0.439 | 0.488 | 0.831 | 0.668 | 0.706 | 0.738 | 0.711 | 0.311 | 0.349 | 0.279 | 1.36 | 0.838 | 1.02 | 1.03 | 0.833
PC-14 | 0.557 | 0.636 | 0.496 | 0.606 | 0.702 | 0.704 | 0.67 | 0.62 | 0.299 | 0.239 | 0.224 | 1.03 | 1.09 | 0.942 | 0.98 | 0.944
NCI-H1651 | 0.527 | 0.555 | 0.526 | 0.58 | 0.591 | 0.592 | 0.467 | 0.513 | 0.438 | 0.44 | 0.174 | 0.758 | 0.823 | 0.805 | 0.789 | 0.803
HARA | 0.216 | 0.327 | 0.259 | 0.418 | 0.355 | 0.486 | 0.568 | 0.559 | 0.3 | 0.188 | 0.237 | 0.976 | 0.991 | 0.889 | 0.961 | 0.974
NCI-H1650 | 0.362 | 0.39 | 0.321 | 0.616 | 0.656 | 0.215 | 0.652 | 0.556 | 0.348 | 0.382 | 0.253 | 1.42 | 1.25 | – | 1.43 | 1.19
NCI-H1395 | 0.582 | 0.685 | 0.631 | 0.648 | 0.641 | 0.581 | 0.563 | 0.642 | 0.393 | 0.443 | 0.43 | 1.12 | 1.01 | 1.07 | 1 | 0.981
LU99A | 0.379 | 0.447 | 0.413 | 0.338 | 0.36 | 0.321 | 0.311 | 0.294 | 0.496 | 0.583 | 0.405 | 0.855 | 0.783 | 0.932 | 0.79 | 0.853
NCI-H1355 | 0.417 | 0.39 | 0.404 | 0.388 | 0.491 | 0.339 | 0.411 | 0.552 | 0.7 | 0.642 | 0.64 | 0.954 | 1.03 | 1.04 | 1.02 | 0.981
HCC-78 | 0.446 | 0.443 | 0.412 | 0.208 | 0.245 | 0.216 | 0.205 | 0.203 | 0.426 | 0.388 | 0.31 | 0.551 | 0.565 | 0.52 | 0.577 | 0.621
NCI-H1563 | – | – | – | 0.69 | 0.683 | 0.669 | 0.611 | 0.622 | 0.464 | 0.467 | 0.424 | 0.958 | 1.04 | 0.94 | 0.984 | 0.971
HCC-15 | 0.699 | 0.699 | 0.588 | 0.705 | 0.773 | 0.8 | 0.747 | 0.743 | 0.638 | 0.574 | 0.459 | 1.07 | 1.04 | 1.08 | 1.1 | 1.07
EKVX | 0.361 | 0.393 | 0.37 | 0.531 | 0.493 | 0.466 | 0.45 | 0.531 | 0.559 | 0.289 | 0.729 | 0.905 | 1.05 | 0.602 | 0.77 | 0.626
NCI-H2087 | 0.282 | 0.252 | 0.215 | 0.77 | 0.709 | 0.723 | 0.801 | 0.848 | 0.907 | 1.04 | 0.608 | 0.981 | 0.992 | 1.23 | 1.11 | 1.15
LK-2 | 0.661 | 0.476 | 0.352 | 0.536 | 0.669 | 0.462 | 0.577 | 0.616 | 0.231 | 0.231 | 0.229 | 0.93 | 1.35 | 1.35 | 1.37 | 1.39
NCI-H1437 | 0.337 | 0.297 | 0.279 | 0.542 | 0.411 | 0.421 | 0.523 | 0.456 | 0.485 | 0.459 | 0.433 | 1.26 | 1.31 | 1.25 | 1.28 | 1.22
COR-L23 | 0.324 | 0.317 | 0.186 | 0.712 | 0.767 | 0.95 | 0.798 | 0.613 | 0.529 | 0.526 | 0.311 | 0.982 | 0.912 | 1.13 | 1.04 | 0.973
ABC-1 | 0.425 | 0.83 | 0.534 | 0.808 | 0.81 | – | 0.745 | 0.563 | 0.663 | 0.49 | 0.361 | 1.29 | 1.15 | – | 0.988 | 1.2
NCI-H522 | 0.988 | 0.789 | 0.77 | – | – | – | – | – | 1.03 | 0.856 | 0.704 | – | – | – | – | –
NCI-H838 | 0.203 | 0.219 | 0.188 | 0.474 | 0.441 | 0.5 | 0.432 | 0.45 | 0.268 | 0.282 | 0.301 | 1.1 | 1.02 | 1.12 | 1 | 0.969

— the supplement of paper PMC10307832
